Experimental data: ChEMBL document CHEMBL1201862, “PubChem BioAssay data set” (2004)
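Cultured in 96-well plates, cells were exposed to test compound for 48 hours across five concentrations. Here, GI50 denotes the concentration required for 50% inhibition of growth.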 Activity calls are given as the source filed them. No stated cut-off is given here; in the data, active = GI50 up to about 1.1 µM and inactive = higher.

How the values were obtained:
Assay in all cases: NCI-60 cell line screen, 48 h
[1] = tested on: CCRF-CEM
[2] = tested on: DU-145
[3] = tested on: HCT-116
[4] = tested on: IGROV-1
[5] = tested on: K562
[6] = tested on: KM12
[7] = tested on: MDA-MB-435
[8] = tested on: Malme-3M
[9] = tested on: NCI/ADR-RES
[10] = tested on: OVCAR-5
[11] = tested on: OVCAR-8
[12] = tested on: RPMI-8226
[13] = tested on: SK-MEL-2
[14] = tested on: SK-MEL-5
[15] = tested on: SNB-19
[16] = tested on: SR
[17] = tested on: SW-620
[18] = tested on: HCT-15
[19] = tested on: MDA-MB-231
[20] = tested on: SN12C

SMILES | GI50 [1] | GI50 [2] | GI50 [3] | GI50 [4] | GI50 [5] | GI50 [6] | GI50 [7] | GI50 [8] | GI50 [9] | GI50 [10] | GI50 [11] | GI50 [12] | GI50 [13] | GI50 [14] | GI50 [15] | GI50 [16] | GI50 [17] | GI50 [18] [µM] | GI50 [19] | GI50 [20]
O=C(CN1CCCC1=O)CS(=O)(=O)c1ccccc1 | > 100 µM (inactive) | > 100 µM (inactive) | > 100 µM (inactive) | > 100 µM (inactive) | > 100 µM (inactive) | > 100 µM (inactive) | > 100 µM (inactive) | > 100 µM (inactive) | > 100 µM (inactive) | > 100 µM (inactive) | > 100 µM (inactive) | > 100 µM (inactive) | > 100 µM (inactive) | > 100 µM (inactive) | > 100 µM (inactive) | > 100 µM (inactive) | > 100 µM (inactive) |  |  | 
CCOC(=O)C1CCC(=O)N1C(=O)c1cccc(Cl)c1 (stereo not given) | > 100 µM (inactive) | > 100 µM (inactive) | > 100 µM (inactive) | > 100 µM (inactive) | > 100 µM (inactive) | > 100 µM (inactive) | > 100 µM (inactive) | > 100 µM (inactive) | > 100 µM (inactive) | > 100 µM (inactive) | > 100 µM (inactive) | > 100 µM (inactive) |  | > 100 µM (inactive) | > 100 µM (inactive) | > 100 µM (inactive) | > 100 µM (inactive) | > 100 | > 100 µM (inactive) | > 100 µM (inactive)
C/C(=N\NC(=S)N1CC2CCC(CC2)C1)c1nccs1 | < 0.01 µM (active) | 0.255 µM (active) | < 0.0187 µM (active) | 0.158 µM (active) | < 0.01 µM (active) | 0.133 µM (active) | 0.413 µM (active) | 0.435 µM (active) | < 0.0295 µM (active) | 0.143 µM (active) | 0.114 µM (active) | 0.0347 µM (active) | 0.679 µM (active) | 0.153 µM (active) | 0.741 µM (active) | 0.0716 µM (active) | 0.11 µM (active) | 0.0516 |  | 0.853 µM (active)
CCNC1=C(NC(=O)c2ccccc2)C(=O)c2ccccc2C1=O | 70.1 µM (inactive) | 57 µM (inactive) | 25.8 µM (inactive) | 46.9 µM (inactive) | 45.4 µM (inactive) | 30.4 µM (inactive) | 7.21 µM (inactive) | 16.8 µM (inactive) | 16.7 µM (inactive) | > 100 µM (inactive) | 46.8 µM (inactive) | > 100 µM (inactive) |  | > 10 µM (inactive) | 83.2 µM (inactive) | 40.2 µM (inactive) | 23.4 µM (inactive) | 18.5 | 6.12 µM (inactive) | 42.8 µM (inactive)
CC1=NC(=Cc2ccc([N+](=O)[O-])cc2)C(=O)N1n1c(-c2ccccc2)nc2ccccc2c1=O | 32.8 µM (inactive) | 51.8 µM (inactive) | 32.1 µM (inactive) | 53.6 µM (inactive) | 40.6 µM (inactive) | 35.6 µM (inactive) | 47.6 µM (inactive) | 53.7 µM (inactive) |  |  | 36.6 µM (inactive) | 22.3 µM (inactive) |  | 31.9 µM (inactive) | 55.2 µM (inactive) | 35.2 µM (inactive) | 36.7 µM (inactive) | 43.1 | 63.7 µM (inactive) | 52 µM (inactive)
N[C@@H](Cc1ccc2oc3cc(=O)c4ccccc4c-3nc2c1)C(=O)O | 38.5 µM (inactive) | 19.5 µM (inactive) | > 100 µM (inactive) | > 100 µM (inactive) | > 100 µM (inactive) | > 100 µM (inactive) | 17 µM (inactive) | 3.37 µM (inactive) | > 100 µM (inactive) | > 100 µM (inactive) | 49 µM (inactive) | > 100 µM (inactive) |  | 11.7 µM (inactive) | 26.4 µM (inactive) | 24.7 µM (inactive) | > 100 µM (inactive) | 57.4 | > 100 µM (inactive) | 55.5 µM (inactive)
O=C1CC2(CCNCC2)C(=O)N1N1CCCC1 | > 100 µM (inactive) | > 100 µM (inactive) | > 100 µM (inactive) | > 100 µM (inactive) | > 100 µM (inactive) | > 100 µM (inactive) | > 100 µM (inactive) | > 100 µM (inactive) | > 100 µM (inactive) | > 100 µM (inactive) | > 100 µM (inactive) | > 100 µM (inactive) |  | > 100 µM (inactive) | > 100 µM (inactive) | > 100 µM (inactive) | > 100 µM (inactive) | > 100 | > 100 µM (inactive) | > 100 µM (inactive)
[N-]=[N+]=C(C(=O)C(=[N+]=[N-])C(=O)c1ccccc1)C(=O)c1ccccc1 |  | > 100 µM (inactive) | > 100 µM (inactive) | > 100 µM (inactive) | > 100 µM (inactive) | 44.2 µM (inactive) | > 100 µM (inactive) | > 100 µM (inactive) | > 100 µM (inactive) | > 100 µM (inactive) | > 100 µM (inactive) | > 100 µM (inactive) | > 100 µM (inactive) | > 100 µM (inactive) | > 100 µM (inactive) |  | > 100 µM (inactive) | > 100 | > 100 µM (inactive) | > 100 µM (inactive)
C=C(C)C1CC2(C)C(C)CC(O)CC2C(OC(=O)C=C(C)C)C1O (stereo not given) | 30.8 µM (inactive) | 60.5 µM (inactive) | 52.7 µM (inactive) | 40.5 µM (inactive) | 32.8 µM (inactive) | 33.7 µM (inactive) | 38.1 µM (inactive) | 45.6 µM (inactive) | 30.5 µM (inactive) | 31.3 µM (inactive) | 40.6 µM (inactive) |  | 61.5 µM (inactive) | 19.2 µM (inactive) | 22.2 µM (inactive) | 17.8 µM (inactive) | > 10 µM (inactive) | 27.3 | 24.5 µM (inactive) | 30.9 µM (inactive)
CC1(C)OCC(COC(=O)C=[N+]=[N-])O1 (stereo not given) | > 100 µM (inactive) | > 100 µM (inactive) | > 100 µM (inactive) | > 100 µM (inactive) | > 10 µM (inactive) | > 100 µM (inactive) | > 100 µM (inactive) | > 100 µM (inactive) |  | > 100 µM (inactive) |  | > 100 µM (inactive) | > 100 µM (inactive) | > 100 µM (inactive) | > 100 µM (inactive) | > 100 µM (inactive) | > 100 µM (inactive) | > 100 | > 100 µM (inactive) | > 100 µM (inactive)
CN1C(Cl)=NS(=O)(=O)c2ccccc21 | 34 µM (inactive) | > 100 µM (inactive) | > 100 µM (inactive) | > 100 µM (inactive) | > 100 µM (inactive) | > 100 µM (inactive) | > 100 µM (inactive) |  | > 100 µM (inactive) | > 100 µM (inactive) | > 100 µM (inactive) |  | > 100 µM (inactive) | > 100 µM (inactive) | > 100 µM (inactive) | 18.7 µM (inactive) | > 100 µM (inactive) | > 100 | > 100 µM (inactive) | > 100 µM (inactive)
Cc1ccc(/C=C2\CN(C)CC3C(c4ccc(C)cc4)=C(C#N)C(=O)NC23)cc1 (stereo not given) | > 50 µM (inactive) | > 50 µM (inactive) | > 50 µM (inactive) | > 50 µM (inactive) | > 50 µM (inactive) | > 50 µM (inactive) | > 50 µM (inactive) | > 50 µM (inactive) | > 50 µM (inactive) | > 50 µM (inactive) | > 50 µM (inactive) | > 50 µM (inactive) | > 50 µM (inactive) | > 50 µM (inactive) | > 50 µM (inactive) |  | > 50 µM (inactive) | > 50 | 48.2 µM (inactive) | > 50 µM (inactive)
COC(=O)C1=C(C(=O)OC)C2(c3ccccc3)c3ccccc3C(=O)C1N2C1CCCCC1 (stereo not given) | 26.7 µM (inactive) | > 100 µM (inactive) | 14.7 µM (inactive) | 49.4 µM (inactive) | 3.42 µM (inactive) | 17.8 µM (inactive) | 86.7 µM (inactive) | 58.2 µM (inactive) | > 82 µM (inactive) | 54.8 µM (inactive) | 60.4 µM (inactive) | 6.9 µM (inactive) | > 61.9 µM (inactive) | 26.2 µM (inactive) | > 63.4 µM (inactive) |  | 41.3 µM (inactive) | 48.2 | > 32.4 µM (inactive) | 49.5 µM (inactive)
COc1ccc2c(c1)N=C1CSC(c3cc([N+](=O)[O-])ccc3Cl)N1C2 (stereo not given) |  |  | 20.1 µM (inactive) | 34.5 µM (inactive) | 26 µM (inactive) | 19 µM (inactive) | 15.6 µM (inactive) | 23.2 µM (inactive) | 23.4 µM (inactive) | 24 µM (inactive) | 29 µM (inactive) | 17.4 µM (inactive) | 18.2 µM (inactive) | 40.6 µM (inactive) | 32.3 µM (inactive) | 26.5 µM (inactive) | 29.3 µM (inactive) | 28.6 | 20.8 µM (inactive) | 16.3 µM (inactive)
COc1cc(/C=C/C(=O)N[C@@H]2C(=O)N3[C@@H]2SC(C)(C)[C@@H]3C(=O)O)cc(OC)c1OC | > 100 µM (inactive) | > 100 µM (inactive) | > 100 µM (inactive) |  | > 100 µM (inactive) | > 100 µM (inactive) | > 100 µM (inactive) |  | > 100 µM (inactive) | > 100 µM (inactive) | > 100 µM (inactive) | > 100 µM (inactive) | > 100 µM (inactive) | > 100 µM (inactive) | > 100 µM (inactive) |  | > 100 µM (inactive) | > 100 | > 100 µM (inactive) | > 100 µM (inactive)
